This is an account of results in patent publication US20240262795A1, “PYRAZINE COMPOUNDS AS INHIBITORS OF FLT3” (Biomea Fusion, Inc., priority 2021, published 2024).

Assay [1] concerns MOLM-13. Kind of assay: Proliferation inhibition, CellTiter-Glo, MOLM-13. It counts as cell-based, human. To be noted: for IC50: Homo sapiens, MOLM-13 cells. A digest of the protocol: (§1)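 About 10,000 cells per well in RPMI-1640 with 10% FBS. Compounds added 2 h after seeding at eight concentrations in duplicate (0.2% DMSO as 100% proliferation), then incubated ~96 h at 37° C, 5% CO2. ATP measured by CellTiter-Glo luminescence; IC50 from four-parameter logistic fit.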
(Cellular ATP, detected with luciferase, serves as a proxy for viable cell number.)

For assay [2], the target named is T1, FLT3-ITD (Homo sapiens, UniProt P36888, DUP595-601).
T1 construct: purchased Signalchem F-12-12CG-10
T1 sequence (P36888 with tags, fused parts or gaps DUP595-601 limits assumed): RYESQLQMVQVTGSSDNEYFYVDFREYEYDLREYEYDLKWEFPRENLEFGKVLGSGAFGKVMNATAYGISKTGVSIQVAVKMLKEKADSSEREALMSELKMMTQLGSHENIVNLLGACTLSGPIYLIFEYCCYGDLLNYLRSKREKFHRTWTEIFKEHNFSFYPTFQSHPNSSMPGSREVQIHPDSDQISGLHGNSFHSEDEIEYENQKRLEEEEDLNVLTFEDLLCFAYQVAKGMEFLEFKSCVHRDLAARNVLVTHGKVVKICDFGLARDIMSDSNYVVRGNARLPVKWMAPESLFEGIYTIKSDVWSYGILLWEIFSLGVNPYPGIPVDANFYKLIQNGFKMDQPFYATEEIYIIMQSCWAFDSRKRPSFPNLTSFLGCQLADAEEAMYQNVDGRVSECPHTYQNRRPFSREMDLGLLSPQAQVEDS
Kind of assay: FLT3-ITD Lance Ultra TR-FRET kinase assay. The assay is classed as biochemical. The text has this:
(§2) High throughput 384-well Lance Ultra TR-FRET based kinase assays were established for the WT FLT3 and FLT3-ITD enzymes and employed a ULight-labeled peptide […] and FLT3 proteins labelled with Eu-conjugated antibody […] (WuXi Aptec). The principle of TR-FRET is based on transfer of energy between a donor and acceptor fluorophore that results when the fluorophores are within close proximity (˜100 Å) of each other. Recombinant WT FLT3 (#PR4666C, M.W. 48.6 kDa) was purchased from Invitrogen and FLT3-ITD (FLT3-ITD-W51, #F-12-12CG-10, M.W. 76 kDa) was purchased from Signalchem. Optimal assay conditions for the WT FLT3 enzyme assay were as follows: 0.5 nM FLT3 protein, 50 nM ULight-JAK-1 (Tyr1023) substrate peptide (PerkinElmer #TRF0121), 100 μM ATP, 60 min reaction time. Optimal assay conditions for the FLT3-ITD enzyme assay were as follows: 0.0625 nM FLT3-ITD protein, 50 nM ULight-JAK-1 (Tyr1023) substrate peptide, 50 μM ATP, 90 min reaction time. Briefly, 11 dose 3× serial dilutions were prepared for the test compounds and the reference compound and 100 nanoliters transferred to appropriate wells of 384-well assay plates. Five microliters of 2× enzyme/peptide were added into assay wells, assay plates centrifuged at 1000 rpm for about 30 seconds, sealed with sealing film and incubated for 30 min at 23° C. Assay buffer comprised 50 mM HEPES (pH 7.5), 1 mM EDTA, 0.01% Brij-35, 10 mM MgCl2 and 2 mM DTT. Next 5 μl of a 2× ATP mixture were added into the assay wells and the plates centrifuged at 1000 rpm about 30 seconds, sealed with sealing film and incubated for 23° C. for appropriate duration. Following assay incubation (30 min for WT FLT3 and 60 min for FLT3-ITD) 10 μl 2× Detection Mixture (Eu-W1024 Anti-phosphotyrosine (PT66) 2 nM and EDTA 10 mM) was added to assay wells, assay plates centrifuge at 1000 rpm about 1 minutes, sealed with sealing film and incubated at 23° C. for 60 minutes. Assay plates were read on a Perkin Elmer Envision reader at two wavelengths (665/615) and the ratio of […] calculated.
(§3) Data was expressed as % of inhibition relative to the vehicle control and calculated as follows:
(§4) Results were analyzed by XLFIT5 as % inhibition vs. log [compound concentration] and IC50 values were calculated by non-linear regression using four parameter-logistic equation. Fit=(A+((B−A)/(1+((C/x)^D)))). Res=(y−fit).
Background: TR-FRET usually uses a lanthanide donor and a delayed reading to cut background.

Assay [3] concerns MV-4-11. Kind of assay: Proliferation inhibition, CellTiter-Glo, MV-4-11. To be noted: for IC50: Homo sapiens. The assay is classed as cell-based, human. A digest of the protocol:
as §1

Assay [4] deals with K-562. Kind of assay: Proliferation inhibition, CellTiter-Glo, K-562. It counts as cell-based, human. To be noted: for IC50: Homo sapiens. A digest of the protocol:
as §1

For assay [5], the target named is T2, WT FLT3 (Homo sapiens, UniProt P36888).
T2 construct: purchased Invitrogen PR4666C
T2 sequence (P36888 564-993 limits assumed): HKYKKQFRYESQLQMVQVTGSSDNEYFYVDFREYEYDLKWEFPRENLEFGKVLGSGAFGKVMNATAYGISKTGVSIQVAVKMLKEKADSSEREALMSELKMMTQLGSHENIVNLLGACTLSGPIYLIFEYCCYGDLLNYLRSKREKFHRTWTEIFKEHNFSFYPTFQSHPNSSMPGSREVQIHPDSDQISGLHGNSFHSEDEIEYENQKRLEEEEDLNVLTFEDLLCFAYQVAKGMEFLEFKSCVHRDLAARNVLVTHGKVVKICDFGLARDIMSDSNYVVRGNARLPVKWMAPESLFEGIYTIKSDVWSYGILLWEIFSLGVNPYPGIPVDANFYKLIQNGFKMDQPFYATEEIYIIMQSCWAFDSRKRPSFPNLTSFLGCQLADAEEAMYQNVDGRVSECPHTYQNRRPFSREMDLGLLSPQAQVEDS
Kind of assay: WT FLT3 Lance Ultra TR-FRET kinase assay. It counts as biochemical.
Excerpt: as §2, §3, §4

The mark [6] stands for this setting: 96 h, IC50 (4 days), CellTiter-Glo, read-out: MOLM-13 IC50.
Where [7] appears, read: read-out: IC50 in MOLM-13 cells.
Setting [8] is: MV4-11, 96 h, MV-4:11 cells, IC50 (4 days), CellTiter-Glo, read-out: MV-4:11 IC50.
Where [9] appears, read: MV4-11 cells, read-out: IC50 in MV4-11 cells.
[10] abbreviates: K562, 96 h, K-562 cells, IC50 (4 days), CellTiter-Glo, read-out: K-562 IC50.
[11] abbreviates: K562 cells, read-out: IC50 in K562 cells.

Each structure is given as a SMILES string. Like-named read-outs stand apart in the source and are kept apart here.

As usually defined, the IC50 is the concentration at which inhibition is half-maximal. On to `C=CC(=O)Nc1cc(Nc2nc(NC3CCOCC3)c(CC)nc2C(N)=O)ccc1N1CCC(N2CCN(C)CC2)CC1` [Compound C-2, reference compound], for which the “Ymax in MOLM-13 cells” value in assay [1] is recorded as 98.6%. For the same compound, the IC50 in assay [1] (setting [6]) is 10 to 100 nM; in assay [1] (setting [7]), 19.2 nM; in assay [2], 0.501 to 1 nM; in assay [3] (setting [8]) it was 1 to 10 nM; in assay [3] (setting [9]), 5 nM; in assay [4] (setting [10]), 10 to 100 nM. In addition, the values for the IC50 in assay [4] (setting [11]) and in assay [5] were 44 nM and 0.501 to 1 nM, respectively. In addition, the “Ymax in MV4-11 cells” value in assay [3] (MV4-11 cells) is listed as 99.1%. Further, the “Ymax in K562 cells” value in assay [4] (K562 cells) is recorded as 95.8%.
Regarding `CCc1nc(C(N)=O)c(Nc2ccnc(CCNC(=O)CN(C)C(=O)/C=C/CN(C)C)c2)nc1N(C)CC` [Compound 606, (E)-3-((2-(2-(2-(4-(dimethylamino)-N-methylbut-2-enamido)acetamido)ethyl)pyridin-4-yl)amino)-6-ethyl-5-(ethyl(methyl)amino)pyrazine-2-carboxamide], the IC50 in assay [1] (setting [6]) is 1 to 10 nM; in assay [2], 0.201 to 0.5 nM; in assay [3] (setting [8]), < 1 nM; in assay [4] (setting [10]), > 500 nM; in assay [5], 0.501 to 1 nM.
Take `C=CC(=O)N(C)[C@@H](C)C(=O)NCCc1cccc(Nc2nc(N(C)C(C)C)c(CC)nc2C(N)=O)c1` [Compound 315, (S)-6-ethyl-5-(isopropyl(methyl)amino)-3-((3-(2-(2-(N-methylacrylamido)propanamido)ethyl)phenyl)amino)pyrazine-2-carboxamide]: the IC50 in assay [1] (setting [6]) is 1 to 10 nM; in assay [2], 0.501 to 1 nM; in assay [3] (setting [8]), 1 to 10 nM; in assay [4] (setting [10]), > 500 nM; in assay [5] it was > 1 nM.
With `CCN(C)c1nc(Nc2cccc(CCNC(=O)[C@H](C)N(C)C(=O)/C=C/CN(C)C)c2)c(C(N)=O)nc1C` [Compound 253, (S,E)-3-((3-(2-(2-(4-(dimethylamino)-N-methylbut-2-enamido)propanamido)ethyl)phenyl)amino)-5-(ethyl(methyl)amino)-6-methylpyrazine-2-carboxamide], the IC50 in assay [1] (setting [6]) was 1 to 10 nM; in assay [2], 0.201 to 0.5 nM; in assay [3] (setting [8]) it was < 1 nM; in assay [4] (setting [10]) it was > 500 nM; in assay [5], 0.501 to 1 nM.
Turning to `CCc1nc(C(N)=O)c(Nc2cccc(CCNC(=O)[C@H](C)N(C)C(=O)/C=C/CN3CCC3)c2)nc1N(C)C` [Compound 156, (S,E)-3-((3-(2-(2-(4-(azetidin-1-yl)-N-methylbut-2-enamido)propanamido)ethyl)phenyl)amino)-5-(dimethylamino)-6-ethylpyrazine-2-carboxamide], the IC50 in assay [1] (setting [6]) was < 1 nM; in assay [2], 0.201 to 0.5 nM; in assay [3] (setting [8]) it was < 1 nM; in assay [4] (setting [10]), > 500 nM; in assay [5], 0.201 to 0.5 nM.
Turning to `CCc1nc(C(N)=O)c(Nc2cc(CCNC(=O)[C@H](C)N(C)C(=O)/C=C/CN(C)C)cc(OC)c2)nc1C1CC1` [Compound 144, (S,E)-5-cyclopropyl-3-((3-(2-(2-(4-(dimethylamino)-N-methylbut-2-enamido)propanamido)ethyl)-5-methoxyphenyl)amino)-6-ethylpyrazine-2-carboxamide], the IC50 is < 1 nM in assay [1] (setting [6]); 0.201 to 0.5 nM in assay [2]; < 1 nM in assay [3] (setting [8]); > 500 nM in assay [4] (setting [10]); 0.201 to 0.5 nM in assay [5].
Turning to `CCc1nc(C(N)=O)c(Nc2cccc(CCNC(=O)[C@H](C)N(C)C(=O)/C=C/CN(C)C)c2)nc1C1CC1` [Compound 138, (S,E)-5-cyclopropyl-3-((3-(2-(2-(4-(dimethylamino)-N-methylbut-2-enamido)propanamido)ethyl)phenyl)amino)-6-ethylpyrazine-2-carboxamide], the IC50 was 1 to 10 nM in assay [1] (setting [6]); 0.201 to 0.5 nM in assay [2]; < 1 nM in assay [3] (setting [8]); > 500 nM in assay [4] (setting [10]); 0.201 to 0.5 nM in assay [5].
Regarding `C=CC(=O)Nc1cc(Nc2nc(N[C@H]3CC[C@@](C)(O)CC3)c(CC)nc2C(N)=O)ccc1C` [Compound C-3, reference compound], the “Ymax in MOLM-13 cells” value in assay [1] stood at 0%. Also, the IC50 in assay [1] (setting [6]) was > 500 nM; in assay [1] (setting [7]), > 100 nM; in assay [2], > 1 nM; in assay [3] (setting [8]) it was > 500 nM; in assay [3] (setting [9]), > 100 nM; in assay [4] (setting [10]), > 500 nM. For the same compound, the figures for the half-inhibitory concentration (IC50) in assay [4] (setting [11]) and in assay [5] were > 100 nM and > 1 nM, respectively. In assay [3] (MV4-11 cells), the “Ymax in MV4-11 cells” value stood at 6.8%. Moreover, the “Ymax in K562 cells” value in assay [4] (K562 cells) is on record as 0%.
Take `Cc1nc(C(N)=O)c(Nc2cccc(CCNC(=O)CN(C)C(=O)/C=C/CN(C)C)c2)nc1C1CC1` [Compound 241, (E)-5-cyclopropyl-3-((3-(2-(2-(4-(dimethylamino)-N-methylbut-2-enamido)acetamido)ethyl)phenyl)amino)-6-methylpyrazine-2-carboxamide]: the IC50 in assay [1] (setting [6]) was 1 to 10 nM; in assay [2] it was 0.201 to 0.5 nM; in assay [3] (setting [8]) it was 1 to 10 nM; in assay [4] (setting [10]) it was > 500 nM; in assay [5] it was > 1 nM.
On to `CCc1nc(C(N)=O)c(Nc2cc(CCNC(=O)[C@H](C)N(C)C(=O)/C=C/CN(C)C)cc(OC)c2)nc1N(C)C` [Compound 143], for which the IC50 was < 1 nM in assay [1] (setting [6]); 0.101 to 0.2 nM in assay [2]; < 1 nM in assay [3] (setting [8]); > 500 nM in assay [4] (setting [10]); 0.101 to 0.2 nM in assay [5].
For the compound `CCc1nc(C(N)=O)c(Nc2cccc(CCNC(=O)[C@H](C)N(C)C(=O)/C=C/CN(C)C)c2)nc1N(C)CC` [Compound 221, (S,E)-3-((3-(2-(2-(4-(dimethylamino)-N-methylbut-2-enamido)propanamido)ethyl)phenyl)amino)-6-ethyl-5-(ethyl(methyl)amino)pyrazine-2-carboxamide], the IC50 was < 1 nM in assay [1] (setting [6]); 0.101 to 0.2 nM in assay [2]; < 1 nM in assay [3] (setting [8]); > 500 nM in assay [4] (setting [10]); 0.501 to 1 nM in assay [5].
